From ChEMBL document CHEMBL3046407, “Toxicity of monoterpenes against larvae and adults of Colorado potato beetle, Leptinotarsa decemlineata Say (Coleoptera: Chrysomelidae)” (2007)

Experiments:
[1] = system: Leptinotarsa decemlineata; assay: Insecticidal activity against first-instar larval stage of Leptinotarsa decemlineata infested potato leaves assessed as mortality at 10 mg after 48 hr relative to control; type: functional
[2] = system: Leptinotarsa decemlineata; type: functional, Instar larval stage
[3] = system: Leptinotarsa decemlineata; assay: Insecticidal activity against first-instar larval stage of Leptinotarsa decemlineata infested potato leaves assessed as mortality at 20 mg after 96 hr relative to control; type: functional
[4] = system: Leptinotarsa decemlineata; type: functional, Instar larval stage; remark: listed apart in the source
[5] = system: Leptinotarsa decemlineata; assay: Insecticidal activity against adult Leptinotarsa decemlineata infested potato leaves assessed as mortality at 20 mg after 48 hr relative to control; type: functional
[6] = system: Leptinotarsa decemlineata; assay: Insecticidal activity against adult Leptinotarsa decemlineata infested potato leaves assessed as mortality at 10 mg after 12 hr relative to control; type: functional
[7] = system: Leptinotarsa decemlineata; assay: Insecticidal activity against third-instar larval stage of Leptinotarsa decemlineata infested potato leaves assessed as mortality at 10 mg after 12 hr relative to control; type: functional
[8] = system: Leptinotarsa decemlineata; assay: Insecticidal activity against adult Leptinotarsa decemlineata infested potato leaves assessed as mortality at 10 mg after 48 hr relative to control; type: functional
[9] = system: Leptinotarsa decemlineata; type: functional, Instar larval stage; remark: listed apart in the source
[10] = system: Leptinotarsa decemlineata; type: functional, Instar larval stage; remark: listed apart in the source
[11] = system: Leptinotarsa decemlineata; type: functional, Instar larval stage; remark: listed apart in the source
[12] = system: Leptinotarsa decemlineata; assay: Insecticidal activity against third-instar larval stage of Leptinotarsa decemlineata infested potato leaves assessed as mortality at 20 mg after 12 hr relative to control; type: functional
[13] = system: Leptinotarsa decemlineata; assay: Insecticidal activity against first-instar larval stage of Leptinotarsa decemlineata infested potato leaves assessed as mortality at 10 mg after 96 hr relative to control; type: functional
[14] = system: Leptinotarsa decemlineata; assay: Insecticidal activity against second-instar larval stage of Leptinotarsa decemlineata infested potato leaves assessed as mortality at 20 mg after 12 hr relative to control; type: functional
[15] = system: Leptinotarsa decemlineata; assay: Insecticidal activity against adult Leptinotarsa decemlineata infested potato leaves assessed as mortality at 20 mg after 12 hr relative to control; type: functional
[16] = system: Leptinotarsa decemlineata; assay: Insecticidal activity against second-instar larval stage of Leptinotarsa decemlineata infested potato leaves assessed as mortality at 10 mg after 12 hr relative to control; type: functional
[17] = system: Leptinotarsa decemlineata; assay: Insecticidal activity against first-instar larval stage of Leptinotarsa decemlineata infested potato leaves assessed as mortality at 10 mg after 24 hr relative to control; type: functional
[18] = system: Leptinotarsa decemlineata; assay: Insecticidal activity against adult Leptinotarsa decemlineata infested potato leaves assessed as mortality at 10 mg after 24 hr relative to control; type: functional
[19] = system: Leptinotarsa decemlineata; type: functional, Instar larval stage; remark: listed apart in the source
[20] = system: Leptinotarsa decemlineata; assay: Insecticidal activity against adult Leptinotarsa decemlineata infested potato leaves assessed as mortality at 20 mg after 96 hr relative to control; type: functional
[21] = system: Leptinotarsa decemlineata; assay: Insecticidal activity against third-instar larval stage of Leptinotarsa decemlineata infested potato leaves assessed as mortality at 20 mg after 24 hr relative to control; type: functional
[22] = system: Leptinotarsa decemlineata; type: functional, Instar larval stage; remark: listed apart in the source
[23] = system: Leptinotarsa decemlineata; assay: Insecticidal activity against adult Leptinotarsa decemlineata infested potato leaves assessed as mortality at 20 mg after 24 hr relative to control; type: functional
[24] = system: Leptinotarsa decemlineata; assay: Insecticidal activity against first-instar larval stage of Leptinotarsa decemlineata infested potato leaves assessed as mortality at 20 mg after 12 hr relative to control; type: functional
[25] = system: Leptinotarsa decemlineata; assay: Insecticidal activity against first-instar larval stage of Leptinotarsa decemlineata infested potato leaves assessed as mortality at 10 mg after 12 hr relative to control; type: functional
[26] = system: Leptinotarsa decemlineata; type: functional, Instar larval stage; remark: listed apart in the source
[27] = system: Leptinotarsa decemlineata; type: functional, Instar larval stage; remark: listed apart in the source
[28] = system: Leptinotarsa decemlineata; assay: Insecticidal activity against first-instar larval stage of Leptinotarsa decemlineata infested potato leaves assessed as mortality at 20 mg after 48 hr relative to control; type: functional
[29] = system: Leptinotarsa decemlineata; assay: Insecticidal activity against first-instar larval stage of Leptinotarsa decemlineata infested potato leaves assessed as mortality at 20 mg after 24 hr relative to control; type: functional
[30] = system: Leptinotarsa decemlineata; assay: Insecticidal activity against adult Leptinotarsa decemlineata infested potato leaves assessed as mortality at 10 mg after 96 hr relative to control; type: functional
[31] = system: Leptinotarsa decemlineata; type: functional, Instar larval stage; remark: listed apart in the source
[32] = system: Leptinotarsa decemlineata; assay: Insecticidal activity against third-instar larval stage of Leptinotarsa decemlineata infested potato leaves assessed as mortality at 10 mg after 24 hr relative to control; type: functional

Row | Structure (SMILES) | mortality [1] [%] | mortality [2] [%] | mortality [3] [%] | mortality [4] [%] | mortality [5] [%] | mortality [6] [%] | mortality [7] [%] | mortality [8] [%] | mortality [9] [%] | mortality [10] [%] | mortality [11] [%] | mortality [12] [%] | mortality [13] [%] | mortality [14] [%] | mortality [15] [%] | mortality [16] [%] | mortality [17] [%] | mortality [18] [%] | mortality [19] [%] | mortality [20] [%] | other results
1 | CC1CCC(C(C)C)C(O)C1 (stereo unspecified) [MENTHOL] | 16.7 | 40 | 36.7 | 26.7 | 13.3 | 3.3 | 20 | 16.7 | 40 | 20 | 23.3 | 26.7 | 36.7 | 0 | 0 | 3.3 | 3.3 | 3.3 | 33.3 | 33 | mortality [21]: 33.3%; mortality [22]: 46.7%; mortality [23]: 0%; mortality [24]: 0%; mortality [25]: 0%; mortality [26]: 6.7%; mortality [27]: 40%; mortality [28]: 30%; mortality [29]: 16.7%; mortality [30]: 30%; mortality [31]: 26.7%; mortality [32]: 23.3%
2 | CC12CCC(C1)C(C)(C)C2O (stereo unspecified) [FENCHYL ALCOHOL] | 13.3 | 3.3 | 3.3 | 13.3 | 6.7 | 3.3 | 10 | 16.7 | 23.3 | 3.3 | 30 | 6.7 | 13.3 | 3.3 | 0 | 3.3 | 10 | 16.7 | 3.3 | 20 | mortality [21]: 10%; mortality [22]: 13.3%; mortality [23]: 0%; mortality [24]: 3.3%; mortality [25]: 3.3%; mortality [26]: 10%; mortality [27]: 20%; mortality [28]: 3.3%; mortality [29]: 3.3%; mortality [30]: 43.3%; mortality [31]: 30%; mortality [32]: 23.3%
3 | CC12CCC(C1)C(C)(C)C2=O (stereo unspecified) [FENCHONE] | 63.3 | 100 | 100 | 63.3 | 100 | 53.3 | 56.7 | 100 | 100 | 100 | 100 | 66.7 | 83.3 | 33.3 | 90 | 23.3 | 46.7 | 100 | 100 | 100 | mortality [21]: 100%; mortality [22]: 73.3%; mortality [23]: 100%; mortality [24]: 36.7%; mortality [25]: 13.3%; mortality [26]: 50%; mortality [27]: 100%; mortality [28]: 100%; mortality [29]: 83.3%; mortality [30]: 100%; mortality [31]: 100%; mortality [32]: 93.3%
